Assay results: the supplement of paper PMC13380429

Legend:
Conditions in all cases: 72 h
[1] = test system: U2OS; assay: cell viability relative to DMSO; higher = less toxic
[2] = test system: Calu-3; assay: as above
[3] = test system: Vero E6; assay: as above
[4] = test system: Caco-2; assay: as above
[5] = test system: HepG2; assay: as above
[6] = test system: U2OS; assay: drug sensitivity score (DSS) for viability; higher = more toxic; extreme values may be limits of the assay
[7] = test system: Calu-3; assay: as above
[8] = test system: Vero E6; assay: as above
[9] = test system: Caco-2; assay: as above
[10] = test system: HepG2; assay: as above
[11] = test system: U2OS; assay: relative viability EC50 (midpoint between 100% and the lowest measured viability); higher = less toxic
[12] = test system: Calu-3; assay: as above
[13] = test system: Vero E6; assay: as above
[14] = test system: Caco-2; assay: as above
[15] = test system: HepG2; assay: as above

| SMILES | cell viability ([1]; 1 nM) [%] | cell viability ([1]; 10 nM) [%] | cell viability ([1]; 100 nM) [%] | cell viability ([1]; 1000 nM) [%] | cell viability ([1]; 10000 nM) [%] | cell viability ([2]; 1 nM) [%] | cell viability ([2]; 10 nM) [%] | cell viability ([2]; 100 nM) [%] | cell viability ([2]; 1000 nM) [%] | cell viability ([2]; 10000 nM) [%] | cell viability ([3]; 1 nM) [%] | cell viability ([3]; 10 nM) [%] | cell viability ([3]; 100 nM) [%] | cell viability ([3]; 1000 nM) [%] | cell viability ([3]; 10000 nM) [%] | cell viability ([4]; 1 nM) [%] | cell viability ([4]; 10 nM) [%] | cell viability ([4]; 100 nM) [%] | cell viability ([4]; 1000 nM) [%] | cell viability ([4]; 10000 nM) [%] | cell viability ([5]; 1 nM) [%] | cell viability ([5]; 10 nM) [%] | cell viability ([5]; 100 nM) [%] | cell viability ([5]; 1000 nM) [%] | cell viability ([5]; 10000 nM) [%] | drug sensitivity score [6] | drug sensitivity score [7] | drug sensitivity score [8] | drug sensitivity score [9] | drug sensitivity score [10] | relative viability EC50 [11] [µM] | relative viability EC50 [12] [µM] | relative viability EC50 [13] [µM] | relative viability EC50 [14] [µM] | relative viability EC50 [15] [µM] |
| --- | --- | --- | --- | --- | --- | --- | --- | --- | --- | --- | --- | --- | --- | --- | --- | --- | --- | --- | --- | --- | --- | --- | --- | --- | --- | --- | --- | --- | --- | --- | --- | --- | --- | --- | --- |
| CC(C)(O)CNc1nc(Nc2ccnc(C(F)(F)F)c2)nc(-c2cccc(C(F)(F)F)n2)n1 [enasidenib] | 101 | 104 | 99.9 | 104 | 92 | 96 | 106 | 103 | 87.8 | 92.7 | 98.2 | 94.2 | 97.9 | 99.6 | 101 | 94.5 | 115 | 107 | 102 | 79.3 | 106 | 96.9 | 110 | 106 | 91.7 | 0 | 0.5 | 0 | 0.5 | 0 | > 10 | > 10 | > 10 | > 10 | > 10 |
| CCc1cccc(CC)c1NC(=O)CN(CC(=O)O)CC(=O)O [etifenin] | 87.1 | 97.2 | 90.1 | 103 | 106 | 94.6 | 104 | 105 | 90.5 | 90.6 | 106 | 93.7 | 106 | 97.4 | 95 | 83.1 | 104 | 95.7 | 124 | 93.3 | 104 | 84.1 | 106 | 95.9 | 113 | 0 | 0 | 0 | 0 | 0 | > 10 | > 10 | > 10 | > 10 | > 10 |
| Cn1c(=O)c2c(ncn2CCO)n(C)c1=O [etofylline] | 102 | 97.4 | 97 | 98.8 | 98.4 | 97.8 | 99.6 | 97 | 98.2 | 102 | 104 | 98 | 103 | 103 | 103 | 103 | 98 | 90.5 | 102 | 97.6 | 101 | 110 | 88.8 | 96.6 | 102 | 0 | 0 | 0 | 0 | 0 | > 10 | > 10 | > 10 | > 10 | > 10 |
